Reference: article PMC9603946, “On the Sensitivity of the Virion Envelope to Lipid Peroxidation” (Microbiology Spectrum, 2022)
Several values for one entry are separate records, joined by “and”; a condition that tells them apart may be missing. Equal entries are not always repeated. Where two headings read alike, the source gives them in different places. Marks after values point to notes of the source that are not given here.

Tests used:
[1] = system: HSV-1; assay: HSV-1 virion infectivity (plaquing efficiency) on Vero cells after virion pretreatment; details: for EC50: Human alphaherpesvirus 1, Vero
Description: (§1) The inocula were removed, and the cells were washed and then incubated at 37°C in 5% CO2 until plaques were visible and well-resolved (about 2 days), at which time they were fixed and stained with crystal violet.
(§2) HSV-1 suspensions of 20,000 plaque PFU in 250 μL DMEM were mixed 1:1 with 2-fold serial dilutions of the general peroxidators and were incubated in a water bath for 2 h at 37°C. Next, treated virions were diluted 1:100 before being adsorbed onto cells for 1 h at 37°C. The inocula were removed, and the cells were washed twice with cold DMEM. Infected cells were overlaid with DMEM supplemented with 2% (Vero) or 1% (HFF) methylcellulose and 5% FBS and were incubated at 37°C until plaques were visible and well-resolved, typically in about 2 days. Cell monolayers were fixed and stained with 1% crystal violet in 17% methanol for 18 h at RT. The cells were washed, and the plaques were counted and normalized to those produced by the vehicle treated virions.
(§3) To test the effects of lipid soluble antioxidants on virions, 10 μM vitamin E loaded onto 1% carrier BSA in the dark for 4.5 h at RT was incubated with 10^6 HSV-1 virions for 3 h at 37°C. […] The treated virions were diluted 1:100 before infecting cells. […] The mix was incubated for 2 h at 37°C, diluted 1:100, and used to infect cells. The infectivity of an aliquot of treated virions was tested via a plaque assay.

[2] = system: Vero cells; assay: Vero cell lipid peroxidation probed with C11-Bodipy; type: cell-based, African green monkey; details: C11-Bodipy (Fig. 8)
Description: (§4) The effects of peroxidators have been commonly evaluated against purified lipids and liposomes as a proxy, but they have not been evaluated against virions ([50], [53][–][55]). We instead directly evaluated the extent of virion lipid peroxidation.
To evaluate Vero cell lipoperoxidation with C11-Bodipy, 7.5 × 10^3 cells were seeded into each well of 96-well plates and incubated for 18 h at 37°C in 5% CO2 before preloading them with 1 μM C11-Bodipy for 30 min at 37°C. […] Two hours later, the cells were washed twice and lysed with DMSO:isopropanol. Fluorescence was evaluated in a TECAN Infinite M200 Pro at 550 nm excitation and 580 to 630 nm emission with the reading peak at 600 nm.
(§5) To evaluate the effects of a lipid soluble antioxidant, cells or virions were preloaded with vitamin E-BSA for 3 h at 37°C. Vitamin E-BSA containing medium was removed, and the cells were washed twice with DMEM. Liperfluo (20 or 10 μM for cells or virions, respectively) or C11-Bodipy (1 μM for cells or 0.1 mol% for virions) were preloaded into the cells or virions for 30 min at 37°C.
(§6) To evaluate the effects of water soluble antioxidants, liperfluo (20 μM for cells or 10 μM for virions) or C11-Bodipy (1 μM for cells or 0.1 mol% for virions) were preloaded into the cells or virions for 30 min at 37°C. […] Fluorescence was evaluated in a TECAN Infinite M200 Pro at 515 nm excitation and 545 nm emission for liperfluo or at 550 nm excitation and 580 to 630 nm emission for C11-Bodipy.

[3] = system: HSV-1 virions; assay: HSV-1 virion lipid peroxidation probed with C11-Bodipy; design: species or system HSV-1 KOS; details: C11-Bodipy (Fig. 8)
Description: as §4
To evaluate virion lipoperoxidation with C11-Bodipy, 50 μL DMEM containing 5 × 10^6 PFU of HSV-1 was added into each well of 96-well plates. Virions were then preloaded with 0.1 mol % of C11-Bodipy for 30 min at 37°C. […] Fluorescence was evaluated in a TECAN Infinite M200 Pro at 550 nm excitation and 580 to 630 nm emission with the reading peak at 600 nm.
as §5, §6

[4] = system: HSV-1; assay: HSV-1 virion infectivity (plaquing efficiency) on HFF cells after virion pretreatment; details: for EC50: Human alphaherpesvirus 1, HFF
Description: as §1, §2, §3

[5] = system: HFF cells; assay: HFF cell viability after 2 h exposure to lipoperoxidators (CellTiter-Glo); details: HFF
Description: (§7) The cells were washed twice with warm DMEM before a 100 μL lipoperoxidator solution was transferred with a multichannel pipette from the plate containing the drug dilutions in technical triplicates. The cells were incubated with peroxidators for 2 h at 37°C. Then, the medium was removed, and the cells were washed twice with DMEM at 37°C. The plates were cooled down to RT, and the medium was removed. Then, 50 μL phenol red free DMEM and 50 μL CellTiter-glo Luminiscent Cell Viability Assay (Promega, G7571/2/3) were added and mixed in an orbital shaker for 2 min. Afterwards, 80 μL of the mix was transferred onto white 96-well plates and incubated for 10 min at RT for signal stabilization. The luminescence was read in the Glomax Multidetection System (Promega) with an integration time of 0.5 s.
(§8) The means of the technical triplicates were normalized to the means of the vehicle controls, analyzed via nonlinear regression dose responses, and graphed using GraphPad Prism 9.0. Three or four independent biological replicates were performed for each treatment (n = 3 or 4).
(§9) To evaluate the effects of lipid soluble antioxidants, 10 μM vitamin E was loaded onto carrier 1% BSA in the dark for 4.5 h at RT. The cells were washed twice with DMEM at 37°C and preloaded with 100 μL of 10 μM vitamin E in BSA carrier for 3 h at 37°C. The cells were washed twice again before the addition of any lipoperoxidators. Peroxidators were then added to the cells at working concentrations and incubated for 2 h at 37°C. The peroxidation solution was then removed, and the cells were washed twice with DMEM before analyzing viability. To evaluate the effects of a water soluble antioxidant, the cells were treated with 10 μM vitamin C (final concentration) simultaneously with the lipoperoxidators.

[6] = as above; details: human, HFF cells
Description: as §7, §8, §9

[7] = system: Vero cells; assay: Vero cell lipid peroxidation probed with liperfluo; type: cell-based, African green monkey; details: for EC50: Chlorocebus sabaeus, Vero, Liperfluo probe, read-out: CP50 (the source's name)
Description: as §4
To evaluate cell lipid peroxidation using liperfluo, 7.5 × 10^3 Vero cells were seeded into each well of 96-well plates and incubated for 18 h at 37°C in 5% CO2. […] Two hours later, the cells were washed twice, and the fluorescence was evaluated in a TECAN Infinite M200 Pro at 515 nm excitation and 545 nm emission.
as §5, §6

[8] = system: Vero cells; assay: Vero cell viability after 2 h exposure to lipoperoxidators (CellTiter-Glo); details: Vero
Description: as §7, §8, §9

[9] = as above; details: African green monkey, Vero cells, CC50, Vero
Description: as §7, §8, §9

[10] = system: HSV-1 virions; assay: microbe, parasite or virus in culture; design: species or system HSV-1 KOS; details: virions, at higher AAPH concentrations
Description: as §4
To evaluate virion peroxidation using liperfluo, 50 μL DMEM that contained 5 × 10^6 PFU of HSV-1 was added to 96-well plates. Virions were then preloaded with 10 μM liperfluo for 20 min at 37°C. […] Fluorescence was evaluated in a TECAN Infinite M200 Pro at 515 nm excitation and 545 nm emission. Medium containing no virus was used as blank.
as §5, §6

[11] = system: enveloped viruses; details: cited from earlier work
[12] = many months of exposure to light at room temperature; no reference given; cited from earlier work
[13] = system: HSV-1; type: cell-based, HSV-1 KOS; details: for protective effect on infectivity in atmospheric O2: substance alone, without BSA carrier; for drop of viral titers: after 2 h of incubation in atmospheric O2 at 37°C with the substance
Description: To test other oxidative conditions, an HSV-1 suspension was incubated in atmospheric oxygen at 37°C in DMEM without serum. The virions were incubated with the previously used antioxidants (vitamin E-BSA and vitamin C), vitamin E without the carrier, the BSA carrier alone, vitamin C-BSA, cholesterol (another compound with a conjugated ring and alkyl chains but with limited antioxidant activity), or cholesterol-BSA. A plaquing efficiency assay was then performed with the treated virions.
A time course plaquing efficiency assay was performed with HSV-1 incubated under atmospheric oxidative conditions. Virions (3 × 10^5 PFU) were incubated with vitamin E, vitamin E-BSA, cholesterol, cholesterol-BSA, vitamin C (10 μM final concentration), or the carrier BSA (0.5% final concentration) for 3 h at 37°C in a water bath with atmospheric air (atmospheric O2). Aliquots from each condition were taken every hour and diluted 1:200 to perform plaquing efficiency assays as previously described on the Vero cells.

Compound: CC(C)(N=NC(C)(C)C(=N)N)C(=N)N.Cl.Cl [AAPH, 2,2′-azobis(2-methylpropionamidine) dihydrochloride]
- EC50 ([1]; 2 h, Vero, no antioxidant, virions treated 2 h at 37°C): 20.8 mM
- EC50 ([1]; Vero, virions preloaded with vitamin E (10 μM, BSA carrier)): 31 mM
- concentration of maximal inhibition of virion infectivity ([1]; Vero): 100 mM
- concentration giving a loss of infectivity of about 30% ([1]; Vero, 2 h at 37°C): 25 mM
- SI, CC50/EC50 ([1]; Vero, vitamin C): 0.9
- minimum inhibitory concentration (MIC) that decreased infectivity in the presence of vitamin C ([1]; Vero, vitamin C): 50 mM
- SI, CC50/EC50 ([1]; Vero, vitamin E): 4.4
- lowest concentration that decreased virion infectivity in the presence of BSA ([1]; Vero, with BSA): 50 mM
- lowest effective concentration on infectivity in the presence of the antioxidants ([1]; Vero, with antioxidants): 25 mM
- lowest concentration affecting cell lipid peroxidation [2]: 50 to 100 mM
- lowest concentration affecting virion peroxidation [3]: 200 mM
- concentration giving a loss of infectivity of about 30% ([4]; 2 h at 37°C): 12.5 mM
- EC50 ([4]; 2 h, no antioxidant, virions treated 2 h at 37°C): 24.7 mM
- EC50 ([4]; virions preloaded with vitamin E (10 μM, BSA carrier)): 31.4 mM
- SI, CC50/EC50 ([4]; vitamin C): 1.7
- minimum inhibitory concentration (MIC) that decreased infectivity in the presence of vitamin C ([4]; vitamin C): 100 mM
- SI, CC50/EC50 ([4]; vitamin E): 3.1
- PI, CC50 (antioxidant)/CC50 ([5]; vitamin C): 1.1
- PI, CC50 (antioxidant)/CC50 ([5]; vitamin E): 0.5 ^*
- CC50 at 2 h [6]: 96.7 mM
- EC50 ([7]; no antioxidant): 89.2 mM
- EC50 ([7]; vitamin C): 90.7 mM
- EC50 ([7]; vitamin E): 90.7 mM
- level of lipoperoxidation detected by liperfluo ([7]; cells, at higher AAPH concentrations): < 2 AU
- concentration of maximal inhibition of cell viability [8]: 400 mM
- lowest concentration that reduced cell viability [8]: 12.5 mM and 25 mM
- PI, CC50 (antioxidant)/CC50 ([8]; vitamin C): 1.3
- PI, CC50 (antioxidant)/CC50 ([8]; vitamin E): 2.0 ^*
- CC50 at 2 h ([9]; no antioxidant, 2 h at 37°C): 69 mM
- CC50 at 2 h ([9]; with vitamin C (10 μM)): 88.4 mM
- level of lipoperoxidation detected by liperfluo [10]: < 2 AU

Compound: C=CCN1C(=O)/C(=C/c2ccc(-c3ccccc3)o2)SC1=S [LJ001]
- fold over antiviral concentrations at which not cytotoxic [11]: ≥ 100 fold

Compound: O=c1[nH]c(=O)n([C@@H]2O[C@H](CO)[C@@H](O)[C@@H]2O)cc1C#Cc1ccc2c3cccc4cccc(c5cccc1c52)c43 [aUY11, 5-(Perylen-3-yl) ethynyl-arabino-uridine]
- inactivation by light exposure [12]: not inactivated

Compound: CC(C)CCC[C@@H](C)[C@H]1CC[C@H]2[C@@H]3CC=C4C[C@@H](O)CC[C@]4(C)[C@H]3CC[C@]12C [cholesterol]
- protective effect on infectivity in atmospheric O2 [13]: no protective effects

Compound: O=C1O[C@H]([C@@H](O)CO)C(O)=C1O [vitamin C, L-ascorbic acid]
- drop of viral titers [13]: about 30%

Compound: Cc1c(C)c2c(c(C)c1O)CC[C@@](C)(CCC[C@H](C)CCC[C@H](C)CCCC(C)C)O2 [vitamin E, alpha tocopherol]
- protection of HSV-1 infectivity against the water soluble peroxidator ([1]; Vero and HFF (Fig. 5B and F), vitamin E preloading): did not protect
- protective effect on infectivity in atmospheric O2 [13]: no protective effects

Compound: bovine serum albumin [BSA]
- drop of viral titers [13]: about 30%
- protection of virion infectivity ([13]; after 3 h of incubation in atmospheric O2): about 30%
